Source: patent US12528773B2, “Non-lysosomal glucosylceramidase inhibitors and uses thereof” (ALECTOS THERAPEUTICS INC., priority 2020, dated 2026)

What was measured:
GBA2 = GBA2 (Homo sapiens (Human), UniProt Q9HCG7); experiment: Inhibition of GBA2 in cell lysate (4-methylumbelliferone glucopyranoside substrate); type: biochemical; conditions: HEK293T-overexpressing GBA2 cellular homogenate, pH 5.5; read-out: GBA2 IC50;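 further: homogenate of stably transfected HEK293T cells pre-treated with a GCase inhibitor, test compound preincubated 5 min at 37 °C, substrate reaction 20 min at 37 °C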
[1] = test system: rat intestinal alpha-glucosidases; experiment: Inhibition of rat intestinal alpha-glucosidases (rat intestinal lysate, glucose detection); type: biochemical; conditions: compound concentration 25 μM, sucrose as substrate
Method: Assay for Determination of Inhibition of Rat Intestinal Alpha-Glucosidases
Various concentrations of test compounds were prepared in DMSO and then diluted into buffer consisting of 100 mM citric acid, 200 mM disodium phosphate, pH 6.0. Rat intestinal acetone powder (Sigma) was dissolved to 12.5 mg/mL in assay buffer and sonicated in an ice bath, centrifuged, and the supernatant was collected, aliquoted and stored at −20° C. until use. On the day of the assay, the rat intestinal lysate was diluted to 6.25 mg/mL (sucrose reactions) and 2.1 mg/ml (maltose reactions) in assay buffer. The final reaction solutions for sucrose contained 2.1 mg/mL rat intestinal lysate, 40 mM sucrose, 50 or 25 μM of test compound, and 3.3% DMSO. The final reaction solution for maltose contained 0.69 mg/mL rat intestinal lysate, 10 mM maltose, 50 or 25 μM of test compound, and 3.3% DMSO. The reaction was initiated by the addition of substrate (sucrose or maltose) and allowed to proceed at 37° C. for 20 min to assess rat intestinal alpha-glycosidase activities. The reaction was stopped by addition of 20 μL of 2 M Tris-HCl, pH 7.0. The glucose produced during the reaction was detected using a commercial Amplex Red glucose detection kit from Thermo Fisher. For a full plate, the Amplex Red detection mixture was prepared by mixing 35 μL glucose oxidase, 35 μL horseradish peroxidase and 35 μL Amplex Red into 3395 μL 1× Amplex Red detection buffer. A total of 30 μL of detection mixture was added to each well. Fluorescence was measured in kinetic mode on a Biotek Synergy H4 plate reader at a wavelength of 573 nm for excitation and 610 nm for emission for 15 min and quantified from the data at 10 min. Incubations without added rat intestinal lysate were used to correct for the background amount of glucose present in the samples. Incubations without added test compound were used to define maximal enzyme activity. Percent inhibition of rat intestinal alpha-glucosidases was determined by dividing the amount of glucose detected in the presence of test compound by the amount of glucose detected in the maximal enzyme activity wells. All conditions were analyzed in triplicate. […] The final reaction solutions were the same as described above for the Amplex Red Detection kit. After a 20 min reaction time at 37° C., 100 μL of hexokinase glucose reagent was added to all test wells except for the no enzyme added control wells and no test compound added wells. The plate was incubated for a further 15 min at room temperature and the absorbance was read at 340 nm on a Biotek Synergy H4 plate reader. The percent inhibition of rat intestinal alpha-glucosidases was determined in a similar manner as described above.

GBA2, sequence (Q9HCG7 whole entry): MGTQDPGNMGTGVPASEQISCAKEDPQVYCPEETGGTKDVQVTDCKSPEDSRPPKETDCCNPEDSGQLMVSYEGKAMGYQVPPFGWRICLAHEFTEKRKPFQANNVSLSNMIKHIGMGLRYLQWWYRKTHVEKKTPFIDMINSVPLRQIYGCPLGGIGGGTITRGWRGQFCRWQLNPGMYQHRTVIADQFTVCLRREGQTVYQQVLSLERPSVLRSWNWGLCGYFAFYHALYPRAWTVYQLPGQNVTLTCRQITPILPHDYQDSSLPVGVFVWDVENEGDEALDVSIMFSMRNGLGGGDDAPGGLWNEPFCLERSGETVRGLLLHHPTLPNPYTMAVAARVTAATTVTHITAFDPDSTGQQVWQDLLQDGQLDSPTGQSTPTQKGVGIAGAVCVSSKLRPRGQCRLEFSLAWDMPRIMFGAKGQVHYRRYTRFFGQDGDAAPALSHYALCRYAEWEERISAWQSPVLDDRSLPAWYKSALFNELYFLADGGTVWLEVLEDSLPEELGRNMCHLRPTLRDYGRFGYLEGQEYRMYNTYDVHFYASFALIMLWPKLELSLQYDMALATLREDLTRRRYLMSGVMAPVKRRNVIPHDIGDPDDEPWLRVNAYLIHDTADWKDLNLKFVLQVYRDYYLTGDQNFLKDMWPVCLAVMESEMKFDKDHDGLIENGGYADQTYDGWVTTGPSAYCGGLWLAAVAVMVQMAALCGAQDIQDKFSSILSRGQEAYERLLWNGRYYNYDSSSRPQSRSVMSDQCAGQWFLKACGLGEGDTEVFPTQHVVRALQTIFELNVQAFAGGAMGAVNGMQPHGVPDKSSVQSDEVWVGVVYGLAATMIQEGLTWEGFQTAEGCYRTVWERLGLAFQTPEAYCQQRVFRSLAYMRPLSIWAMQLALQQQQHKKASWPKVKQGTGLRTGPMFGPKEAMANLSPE

SMILES	IC50 (GBA2) [nM]	rat α-glu. (% inhib.) [1] [%]
O[C@H]1[C@H](O)CN(C[C@H]2CCN(c3cccc(C(F)(F)F)n3)C2)C[C@@H]1O [Example 142, (3S,4R,5R)-1-(((R)-1-(6-(trifluoromethyl)pyridin-2-yl)pyrrolidin-3-yl)methyl)piperidine-3,4,5-triol]	< 100	0
O[C@H]1[C@H](O)CN(C[C@@H]2CCN(c3cnccc3C(F)(F)F)C2)C[C@@H]1O [Example 25, (3S,4S,5R)-1-(((S)-1-(4-(trifluoromethyl)pyridin-3-yl)pyrrolidin-3-yl)methyl)piperidine-3,4,5-triol]	< 100	1
O[C@H]1[C@H](O)CN(CCc2cccc(Cl)c2F)C[C@@H]1O [Example 6, (3S,4r,5R)-1-(3-chloro-2-fluorophenethyl)piperidine-3,4,5-triol]	< 100	3
O[C@H]1[C@H](O)CN(CC2(F)CCN(c3cccc(C(F)(F)F)n3)CC2)C[C@@H]1O [Example 195, (3S,4r,5R)-1-((4-fluoro-1-(6-(trifluoromethyl)pyridin-2-yl)piperidin-4-yl)methyl)piperidine-3,4,5-triol]	100 to 1000	5
O[C@H]1[C@H](O)CN(CC2(F)CCN(c3nc4ccccc4s3)CC2)C[C@@H]1O [Example 196, (3S,4r,5R)-1-((1-(benzo[d]thiazol-2-yl)-4-fluoropiperidin-4-yl)methyl)piperidine-3,4,5-triol]	100 to 1000	10
O[C@H]1[C@H](O)CN(C[C@H]2CCN(c3ccc(C(F)(F)F)nc3)C2)C[C@@H]1O [Example 149, (3S,4R,5R)-1-(((R)-1-(6-(trifluoromethyl)pyridin-3-yl)pyrrolidin-3-yl)methyl)piperidine-3,4,5-triol]	< 100	0
CCCCN1C[C@H](O)[C@@H](O)[C@H](O)[C@H]1CO [NB-DNJ, (2R,3R,4R,5S)-1-butyl-2-(hydroxymethyl)piperidine-3,4,5-triol, reference compound]		98
OC[C@@H]1[C@@H](O)[C@H](O)[C@@H](O)CN1CCCCCOCC12CC3CC(CC(C3)C1)C2 [AMP-DNM, (2R,3R,4R,5S)-1-(5-((3R,5R,7R)-adamantan-1-ylmethoxy)pentyl)-2-(hydroxymethyl)piperidine-3,4,5-triol, reference compound]		85
CCCCOc1ccc(CN2C[C@@H](O)[C@H](O)[C@@H](O)C2)cc1 [Example 197, (3S,4r,5R)-1-(4-butoxybenzyl)piperidine-3,4,5-triol]	< 100	5
O[C@H]1[C@H](O)CN(CC2Cc3c(F)ccc(F)c3C2)C[C@@H]1O [Example 190, (3S,4r,5R)-1-((4,7-difluoro-2,3-dihydro-1H-inden-2-yl)methyl)piperidine-3,4,5-triol]	< 100	4
O[C@H]1[C@H](O)CN(C[C@H]2CCN(c3nc4ccccc4o3)C2)C[C@@H]1O [Example 22, (3S,4R,5R)-1-(((R)-1-(benzo[d]oxazol-2-yl)pyrrolidin-3-yl)methyl)piperidine-3,4,5-triol]	< 100	4

The next lines start with results.

IC50 (GBA2) [nM]	SMILES	rat α-glu. (% inhib.) [1] [%]
< 100	CC(F)(F)[C@H]1CC[C@H](CN2C[C@@H](O)[C@H](O)[C@@H](O)C2)CC1 [Example 188, (3S,4R,5R)-1-(((1r,4R)-4-(1,1-difluoroethyl)cyclohexyl)methyl)piperidine-3,4,5-triol]	10
100 to 1000	O=C(C1CCCCC1)N1CCC(F)(CN2C[C@@H](O)[C@H](O)[C@@H](O)C2)CC1 [Example 191, Cyclohexyl(4-fluoro-4-(((3S,4r,5R)-3,4,5-trihydroxypiperidin-1-yl)methyl)piperidin-1-yl)methanone]	1
< 100	O[C@H]1[C@H](O)CN(C[C@H]2CC[C@H](OC(F)(F)F)CC2)C[C@@H]1O [Example 189, (3S,4R,5R)-1-(((1r,4R)-4-(trifluoromethoxy)cyclohexyl)methyl)piperidine-3,4,5-triol]	3
100 to 1000	O[C@H]1[C@H](O)CN(C[C@H]2CC[C@@H](C(F)F)CC2)C[C@@H]1O [Example 186, (3S,4R,5R)-1-(((1s,4S)-4-(difluoromethyl)cyclohexyl)methyl)piperidine-3,4,5-triol]	8
100 to 1000	O[C@H]1[C@H](O)CN(C[C@@H]2CCCN(c3ccc(C(F)(F)F)nc3)C2)C[C@@H]1O [Example 178, (3S,4S,5R)-1-(((S)-1-(6-(trifluoromethyl)pyridin-3-yl)piperidin-3-yl)methyl)piperidine-3,4,5-triol]	6
100 to 1000	O[C@H]1[C@H](O)CN(C[C@@H]2CCCN(c3cncc(C(F)(F)F)c3)C2)C[C@@H]1O [Example 175, (3S,4S,5R)-1-(((S)-1-(5-(trifluoromethyl)pyridin-3-yl)piperidin-3-yl)methyl)piperidine-3,4,5-triol]	3
100 to 1000	O[C@H]1[C@H](O)CN(C[C@@H]2CCCN(c3nc(C(F)(F)F)cs3)C2)C[C@@H]1O [Example 39, (3S,4S,5R)-1-(((S)-1-(4-(trifluoromethyl)thiazol-2-yl)piperidin-3-yl)methyl)piperidine-3,4,5-triol]	0
< 100	CC(C)c1cnc(N2CCC[C@H](CN3C[C@@H](O)[C@H](O)[C@@H](O)C3)C2)s1 [Example 32, (3S,4R,5R)-1-(((R)-1-(5-isopropylthiazol-2-yl)piperidin-3-yl)methyl)piperidine-3,4,5-triol]	2
< 100	O[C@H]1[C@H](O)CN(CCCC2CCCCC2)C[C@@H]1O [Example 5, (3S,4r,5R)-1-(3-cyclohexylpropyl)piperidine-3,4,5-triol]	10
100 to 1000	O[C@H]1[C@H](O)CN(C[C@H]2CC[C@H](C(F)F)CC2)C[C@@H]1O [Example 185, (3S,4R,5R)-1-(((1r,4R)-4-(difluoromethyl)cyclohexyl)methyl)piperidine-3,4,5-triol]	3
< 100	O[C@H]1[C@H](O)CN(C[C@H]2CCCN(c3ccnc(C(F)(F)F)c3)C2)C[C@@H]1O [Example 173, (3S,4R,5R)-1-(((R)-1-(2-(trifluoromethyl)pyridin-4-yl)piperidin-3-yl)methyl)piperidine-3,4,5-triol]	3
100 to 1000	O[C@H]1[C@H](O)CN(C[C@@H]2CCCN(c3cc(C(F)(F)F)ccn3)C2)C[C@@H]1O [Example 176, (3S,4S,5R)-1-(((S)-1-(4-(trifluoromethyl)pyridin-2-yl)piperidin-3-yl)methyl)piperidine-3,4,5-triol]	0
< 100	CC(F)(F)[C@H]1CC[C@@H](CN2C[C@@H](O)[C@H](O)[C@@H](O)C2)CC1 [Example 187, (3S,4R,5R)-1-(((1s,4S)-4-(1,1-difluoroethyl)cyclohexyl)methyl)piperidine-3,4,5-triol]	0
< 100	O[C@H]1[C@H](O)CN(C[C@H]2CCCN(c3nc(C(F)(F)F)cs3)C2)C[C@@H]1O [Example 33, (3S,4R,5R)-1-(((R)-1-(4-(trifluoromethyl)thiazol-2-yl)piperidin-3-yl)methyl)piperidine-3,4,5-triol]	
< 100	O[C@H]1[C@H](O)CN(C[C@@H]2CCN(c3nc(C(F)(F)F)cs3)C2)C[C@@H]1O [Example 27, (3S,4S,5R)-1-(((S)-1-(4-(trifluoromethyl)thiazol-2-yl)pyrrolidin-3-yl)methyl)piperidine-3,4,5-triol]	2
< 100	O[C@H]1[C@H](O)CN(C[C@@H]2CCN(c3cncnc3C(F)(F)F)C2)C[C@@H]1O [Example 26, (3S,4S,5R)-1-(((S)-1-(4-(trifluoromethyl)pyrimidin-5-yl)pyrrolidin-3-yl)methyl)piperidine-3,4,5-triol]	0
100 to 1000	O[C@H]1[C@H](O)CN(Cc2ccc(N3CCCC3)cc2)C[C@@H]1O [Example 203, (3S,4r,5R)-1-(4-(pyrrolidin-1-yl)benzyl)piperidine-3,4,5-triol]	
